Data on eight compounds can be found in ChEMBL document CHEMBL1201862, “PubChem BioAssay data set” (2004).

Activity calls are given as the source filed them. Unless noted, the rule behind the calls is not given here.

Assay [1] addresses T1, Protein Wnt-3a (Mus musculus, UniProt P27467). Put plainly: SAR analysis of small molecule antagonists of Gli-SUFU in a Wnt3a luminescent reporter assay. The class given is functional. (In a reporter assay the amount or activity of a reporter protein is the signal.)
The nature of assay [2]: NIH3T3 fibroblast cytotoxicity, dose response, cytotoxicity control for PglD inhibitor project, cell-based, CellTiter-Glo luminescence, dry powder (AID 652044). The class given is functional. (ATP-based viability assays read luminescence as a measure of living cells.)
The nature of assay [3]: cells. The class given is functional, cell-based. The following applies: HEK-CNG.
Assay [4] has as its target Galanin receptor type 3 (Homo sapiens, UniProt O60755). Put plainly: Fluorescence-based cell-based primary high throughput dose response assay to identify antagonists of the Galanin Receptor 3 (GalR3). The assay is classed as functional.
Assay [5] can be described thus: cytotoxicity in HEK-293T cells, dose response, cytotoxicity control for TCR NF-kB inhibitor project, luminescence, T-cell screen hits (AID 489026).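 Also: cells exposed to compound about 14 hours before the viability readout.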 The assay is classed as functional, cell-based.
The subject of assay [6] is INS1. The assay can be described thus: beta cell apoptosis inhibitors, cytokine rescue, dose response, luminescence, retest (AID 449756).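 Also: cell death triggered by IL-1 beta plus TNF-alpha plus IFN-gamma mixture; protective hits raise ATP signal compared with cytokine alone wells.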 The following applies: Rattus norvegicus. The assay is classed as functional, cell-based.
For assay [7], the target named is T1, Protein Wnt-3a. The assay can be described thus: Wnt3a-driven reporter signaling inhibition, dose response, selectivity assay for Gli-SUFU antagonist project, Wnt-LIGHT cells, luminescence (AID 651570).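 Also: Wnt-LIGHT reporter cells stimulated with conditioned medium from Wnt3a-producing cells.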 The class given is functional. The following applies: read-out: IC50_Mean.
Assay [8] concerns the target T2, High affinity choline transporter 1 (Homo sapiens, UniProt Q9GZV3).
T2 sequence (Q9GZV3 whole entry): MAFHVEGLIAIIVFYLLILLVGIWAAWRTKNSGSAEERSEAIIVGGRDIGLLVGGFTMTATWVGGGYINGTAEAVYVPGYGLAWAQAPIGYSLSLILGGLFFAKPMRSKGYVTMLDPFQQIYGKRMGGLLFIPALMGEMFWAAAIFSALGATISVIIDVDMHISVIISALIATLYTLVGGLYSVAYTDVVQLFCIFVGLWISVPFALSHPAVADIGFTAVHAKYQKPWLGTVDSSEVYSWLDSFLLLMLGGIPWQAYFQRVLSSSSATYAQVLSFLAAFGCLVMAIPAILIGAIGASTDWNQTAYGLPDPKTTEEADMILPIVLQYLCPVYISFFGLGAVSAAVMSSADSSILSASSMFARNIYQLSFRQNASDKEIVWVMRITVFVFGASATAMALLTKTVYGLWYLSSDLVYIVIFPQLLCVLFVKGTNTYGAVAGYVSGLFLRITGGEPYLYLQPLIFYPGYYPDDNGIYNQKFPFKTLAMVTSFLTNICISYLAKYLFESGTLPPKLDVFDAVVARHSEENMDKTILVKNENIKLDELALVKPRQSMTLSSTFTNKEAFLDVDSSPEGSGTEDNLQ
Put plainly: CHT inhibitors, dose response, cell-based, 5-point CRC, membrane potential dye (AID 504840). The class given is functional.

Assay [9] in a line: control 3'UTR Renilla luciferase suppression, dose response, counter-screen for Shn3 inhibitor project, cell-based, Clone20-Shn3RL, cherry-picked (AID 624133). The class given is functional. In general terms: A counterscreen serves to expose hits that act by an unwanted route or on another target.
Assay [10] in a line: Shn3 3'UTR reporter inhibitors, dose response, cell-based, Clone20 osteoblasts, firefly luciferase, cherry-picked (AID 624132).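 Also: firefly luciferase luminescence from reporter carrying the Shn3 3'UTR in osteoblasts.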 The assay is classed as functional.
The target of assay [11] is Fructose-bisphosphate aldolase (Mycobacterium tuberculosis, UniProt P9WQA3). Put plainly: Fluorescence-based biochemical high throughput dose response assay for inhibitors of the fructose-bisphosphate aldolase (FBA) of M. tuberculosis. The class given is functional.
Chain of Fructose-bisphosphate aldolase (P9WQA3 whole entry): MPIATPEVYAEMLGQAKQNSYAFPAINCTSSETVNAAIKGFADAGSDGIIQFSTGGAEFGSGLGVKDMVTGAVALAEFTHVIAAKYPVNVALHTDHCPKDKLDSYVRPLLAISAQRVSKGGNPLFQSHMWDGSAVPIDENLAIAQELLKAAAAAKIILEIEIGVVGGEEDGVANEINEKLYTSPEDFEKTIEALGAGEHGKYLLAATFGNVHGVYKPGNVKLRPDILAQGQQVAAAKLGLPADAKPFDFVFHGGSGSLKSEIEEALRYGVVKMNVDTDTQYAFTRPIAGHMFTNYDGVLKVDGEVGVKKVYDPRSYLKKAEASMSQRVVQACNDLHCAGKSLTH
The target in assay [12] is T3, Trace amine-associated receptor 1 (Homo sapiens, UniProt Q96RJ0). The assay can be described thus: Fluorescence-based cell-based high throughput dose response assay to identify agonists of the human trace amine associated receptor 1 (TAAR1). The assay is classed as functional.
T3 sequence (Q96RJ0 whole entry): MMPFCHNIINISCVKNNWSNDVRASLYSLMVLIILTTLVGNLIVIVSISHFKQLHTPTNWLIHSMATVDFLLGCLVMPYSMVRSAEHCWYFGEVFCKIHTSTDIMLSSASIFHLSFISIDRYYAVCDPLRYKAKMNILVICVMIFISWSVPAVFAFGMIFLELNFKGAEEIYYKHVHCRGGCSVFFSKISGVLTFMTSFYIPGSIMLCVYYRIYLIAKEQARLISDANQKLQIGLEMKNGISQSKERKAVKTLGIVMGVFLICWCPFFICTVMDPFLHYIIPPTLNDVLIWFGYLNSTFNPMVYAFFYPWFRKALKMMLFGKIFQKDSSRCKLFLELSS
Assay [13] in a line: cells. The assay is classed as functional, cell-based.
Assay [14] addresses T3, Trace amine-associated receptor 1. The assay can be described thus: Counterscreen for agonists of the human trace amine associated receptor 1 (hTAAR1): Fluorescence-based cell-based high throughput dose response assay to identify hTAAR1 agonist that also desensitize TAAR1 receptor response. The assay is classed as functional.
Assay [15] is described as follows: cells. The assay is classed as functional, cell-based. This is another data set of the same source.
The target in assay [16] is Endoplasmic reticulum aminopeptidase 1 (Homo sapiens, UniProt Q9NZ08). The assay can be described thus: ERAP1 aminopeptidase inhibitors, dose response, biochemical, cherry-pick, set 2, plate reader (AID 743314).
Chain of Endoplasmic reticulum aminopeptidase 1 (Q9NZ08 whole entry): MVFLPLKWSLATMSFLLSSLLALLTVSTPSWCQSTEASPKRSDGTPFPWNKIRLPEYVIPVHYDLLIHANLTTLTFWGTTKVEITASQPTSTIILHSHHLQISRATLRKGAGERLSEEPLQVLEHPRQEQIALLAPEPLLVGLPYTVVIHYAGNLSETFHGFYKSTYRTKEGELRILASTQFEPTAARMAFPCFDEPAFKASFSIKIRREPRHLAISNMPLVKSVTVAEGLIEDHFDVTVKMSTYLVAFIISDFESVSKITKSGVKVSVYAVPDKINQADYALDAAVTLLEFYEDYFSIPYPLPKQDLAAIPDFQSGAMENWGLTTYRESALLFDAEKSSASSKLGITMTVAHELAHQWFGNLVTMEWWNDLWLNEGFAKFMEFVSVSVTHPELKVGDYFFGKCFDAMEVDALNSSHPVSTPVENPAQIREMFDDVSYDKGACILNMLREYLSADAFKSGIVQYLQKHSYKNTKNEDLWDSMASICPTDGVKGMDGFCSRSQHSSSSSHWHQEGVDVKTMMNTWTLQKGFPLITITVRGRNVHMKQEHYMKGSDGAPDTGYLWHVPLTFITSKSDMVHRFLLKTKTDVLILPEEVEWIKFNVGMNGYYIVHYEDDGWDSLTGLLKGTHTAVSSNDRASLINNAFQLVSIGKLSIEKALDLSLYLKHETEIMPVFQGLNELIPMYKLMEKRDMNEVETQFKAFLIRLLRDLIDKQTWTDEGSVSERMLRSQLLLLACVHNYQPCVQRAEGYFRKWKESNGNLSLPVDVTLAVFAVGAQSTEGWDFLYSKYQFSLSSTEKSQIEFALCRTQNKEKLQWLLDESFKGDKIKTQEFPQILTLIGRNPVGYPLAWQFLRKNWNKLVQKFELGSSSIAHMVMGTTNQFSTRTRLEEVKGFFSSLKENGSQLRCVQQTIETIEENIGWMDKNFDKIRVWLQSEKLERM
Assay [17] is described as follows: Inhibition of T. cruzi Tulahuen strain amastigotes in L-6 muscle cells Measured in Cell-Based and Microorganism Combination System Using Plate Reader - 2138-03_Inhibitor_Dose_CherryPick_Activity. Particulars: Rattus norvegicus, L6. The class given is functional.
Assay [18] can be described thus: cytotoxicity in L-6 rat myocytes, dose response, cytotoxicity control, cell-based, plate reader, cherry-pick (AID 651896). The class given is functional.
The nature of assay [19]: intracellular Trypanosoma cruzi inhibitors in host cells – cell-based, plate reader, cherry-pick samples, set 3, dose response (AID 651818).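 Also: compounds incubated with infected cells for about four days.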 The class given is functional.
Assay [20] is described as follows: Inhibition of Plasmodium falciparum NF54 Measured in Cell-Based System Using Plate Reader - 2138-11_Inhibitor_Dose_CherryPick_Activity. The assay is classed as functional.
Assay [21] is described as follows: L. donovani amastigote growth inhibition, dose response, axenic amastigotes, plate reader, cherry pick (AID 651891). The assay is classed as functional, cell-based. The following applies: Leishmania donovani.
Assay [22] is described as follows: T. b. rhodesiense proliferation inhibition, dose response, STIB900 strain, plate reader, cherry pick (AID 651893). The class given is functional, cell-based. The following applies: Trypanosoma brucei.
Assay [23] in a line: T. cruzi intracellular amastigote growth inhibition, dose response, imaging, CA-I/72 strain, bovine embryo skeletal muscle, dry powder (AID 651885). The class given is functional, cell-based.
For assay [24], the target named is ATP-dependent translocase ABCB1 (Homo sapiens, UniProt P08183). Put plainly: ABCB1 efflux inhibition concentration-response, dose response, Jurkat-DNR cells, JC-1, flow cytometry, follow-up (AID 489002). The assay is classed as functional.
Chain of ATP-dependent translocase ABCB1 (P08183 whole entry): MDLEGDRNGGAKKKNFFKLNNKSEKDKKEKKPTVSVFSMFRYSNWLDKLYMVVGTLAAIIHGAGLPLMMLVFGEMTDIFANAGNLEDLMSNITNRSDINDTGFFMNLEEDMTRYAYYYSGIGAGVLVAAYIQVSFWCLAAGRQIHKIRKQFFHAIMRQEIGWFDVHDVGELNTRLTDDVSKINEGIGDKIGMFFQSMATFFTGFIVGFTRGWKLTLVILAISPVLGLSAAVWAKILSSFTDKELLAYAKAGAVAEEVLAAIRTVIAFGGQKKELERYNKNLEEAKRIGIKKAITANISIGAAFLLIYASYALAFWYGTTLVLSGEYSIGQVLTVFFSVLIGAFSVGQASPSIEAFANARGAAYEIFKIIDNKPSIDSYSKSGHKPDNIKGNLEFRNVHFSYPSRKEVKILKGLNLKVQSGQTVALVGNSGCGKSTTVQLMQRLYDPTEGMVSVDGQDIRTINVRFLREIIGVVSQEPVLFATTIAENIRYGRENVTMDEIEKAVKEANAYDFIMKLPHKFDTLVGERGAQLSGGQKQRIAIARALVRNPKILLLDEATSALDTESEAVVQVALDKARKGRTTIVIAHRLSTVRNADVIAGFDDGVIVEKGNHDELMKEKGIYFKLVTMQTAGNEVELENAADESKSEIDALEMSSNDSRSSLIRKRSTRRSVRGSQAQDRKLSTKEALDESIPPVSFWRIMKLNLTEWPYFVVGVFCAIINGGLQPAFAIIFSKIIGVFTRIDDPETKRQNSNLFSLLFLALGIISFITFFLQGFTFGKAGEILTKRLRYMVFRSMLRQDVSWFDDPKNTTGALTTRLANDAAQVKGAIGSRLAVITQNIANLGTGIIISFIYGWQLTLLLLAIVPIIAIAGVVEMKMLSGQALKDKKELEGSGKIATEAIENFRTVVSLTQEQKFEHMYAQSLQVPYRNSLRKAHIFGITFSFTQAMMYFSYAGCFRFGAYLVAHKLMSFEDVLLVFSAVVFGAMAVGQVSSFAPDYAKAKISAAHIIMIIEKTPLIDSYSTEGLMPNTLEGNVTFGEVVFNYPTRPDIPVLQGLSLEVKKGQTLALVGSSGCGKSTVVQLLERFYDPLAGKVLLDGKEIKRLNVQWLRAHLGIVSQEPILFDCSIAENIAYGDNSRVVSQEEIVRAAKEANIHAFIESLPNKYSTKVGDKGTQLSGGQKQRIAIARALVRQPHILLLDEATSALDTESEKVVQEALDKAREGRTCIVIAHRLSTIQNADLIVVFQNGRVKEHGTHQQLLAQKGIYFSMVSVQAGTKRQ

T1 sequence (P27467 whole entry): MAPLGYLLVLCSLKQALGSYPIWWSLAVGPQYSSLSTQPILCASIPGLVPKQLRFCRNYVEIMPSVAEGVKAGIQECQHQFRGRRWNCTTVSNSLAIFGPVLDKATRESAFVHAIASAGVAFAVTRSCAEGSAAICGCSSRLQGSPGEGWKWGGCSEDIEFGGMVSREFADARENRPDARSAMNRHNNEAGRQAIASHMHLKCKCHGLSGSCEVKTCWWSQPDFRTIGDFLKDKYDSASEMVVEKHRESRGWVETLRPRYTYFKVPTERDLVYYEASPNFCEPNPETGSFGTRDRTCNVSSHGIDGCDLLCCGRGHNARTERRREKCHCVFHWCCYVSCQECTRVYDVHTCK
Chain of Galanin receptor type 3 (O60755 whole entry): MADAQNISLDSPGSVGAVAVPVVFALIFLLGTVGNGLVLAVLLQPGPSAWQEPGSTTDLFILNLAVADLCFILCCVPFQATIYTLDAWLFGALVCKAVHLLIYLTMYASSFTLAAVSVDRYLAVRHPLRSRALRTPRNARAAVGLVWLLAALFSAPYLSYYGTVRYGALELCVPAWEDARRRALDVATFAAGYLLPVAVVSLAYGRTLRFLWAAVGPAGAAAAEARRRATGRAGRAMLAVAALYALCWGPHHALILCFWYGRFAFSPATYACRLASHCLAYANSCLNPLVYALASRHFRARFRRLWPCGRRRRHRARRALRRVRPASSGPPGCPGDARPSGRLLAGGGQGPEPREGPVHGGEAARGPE

Consider `O=C(Nc1cc(N2CCCCC2)ncn1)c1ccccc1Cl`, for which the IC50 in [1] is > 21.8 µM (inactive).
The AC50 is the concentration giving half of the maximal activity seen. As for `C[C@@H]1CN([C@@H](C)CO)C(=O)c2cc(NC(=O)Nc3ccc(F)cc3)ccc2O[C@@H]1CN(C)CC1CCCCC1`, the half-maximal activity concentration (AC50) in assay [2] is 43.4 µM (active).
The EC50 is the concentration giving half of the maximal effect. `CCOC(=O)CC1CCCCN1C(=O)c1cc(COc2cccc3cnccc23)on1` (centres undefined): the EC50 in assay [3] is > 29.9 µM (inactive). Moreover, the IC50 is 0.448 µM (active) in assay [4], > 80 µM (inactive) in [5], 0.777 µM (active) in [7] and 11 µM (active) in [8]. The figures for the concentration at half-maximal activity (AC50) in assay [6], in [9] and in assay [10] were 5.89 µM (active), 0.67 µM (active) and 0.713 µM (active), respectively.
As for `CN(C)c1nc(OCc2ccccc2)c2ncc(=O)[nH]c2n1`, the IC50 in [11] was 2.82 µM (active).
Take `Cc1cccc(CSC(=N)N)c1`: the figures for the EC50 in [12] and in [15] were 1.21 µM (active) and > 30 µM (inactive), respectively. Also, the IC50 in [13] is > 30 µM (inactive); in assay [14], 16.9 µM (inactive).
Turning to `COC(=O)[C@@H]1[C@@H](CO)[C@@H]2Cn3c(ccc(/C=C/c4ccccc4)c3=O)[C@H]1N2C(=O)C1CCC1`, the AC50 in [16] is 3.47 µM (active).
Regarding `C[C@@H]1CN([C@@H](C)CO)C(=O)c2cccc(NC(=O)c3ccncc3)c2O[C@H]1CN(C)Cc1ccccc1`, the IC50 in assay [17] is 4.77 µM (inactive); in [18], > 100 µM (inactive); in [20], 4.77 µM (inactive); in assay [21], > 100 µM (inactive); in assay [22], 5.33 µM (inactive); in [23] it was 10 µM (inconclusive). The half-maximal activity concentration (AC50) in [19] is 0.08 µM (active).
On to `CC1CN(C(=O)c2ccoc2)CCN1c1cc(-c2ccco2)nc2cc(-c3ccccc3)nn12` (centres undefined), for which, in [24], the EC50 was 0.0002986 µM.
